Experimental data: PubChem BioAssay AID652053 (Broad Institute, 2013)

Test system: Huh7 psiCHECK-miR122 Renilla luciferase reporter, 48 h
Test: miR-122 inhibitors in Huh7 reporter cells, dose response, cell-based, Huh7 psiCHECK-miR122, Renilla luciferase, cherry-pick (AID 652053)

| Structure (SMILES) | AC40 [µM] |
| --- | --- |
| COc1ccccc1NS(=O)(=O)c1cc(NC(=O)Nc2ccccc2)ccc1N1CCCCC1 | 1.37 |
| Cc1cccc(NS(=O)(=O)c2csc(C(N)=O)c2)c1 | 3.34 |
| Cc1nc2cc(NS(=O)(=O)c3c(C)c(C)cc(C)c3C)ccc2s1 | < 0.26 |
| O=C(Nc1ccccc1)N1C[C@H]2[C@@H](c3ccccc31)[C@@H](CO)N2C(=O)c1ccccn1 | 33.7 |
| O=C(NCCCN1CCCC1=O)c1cccc(S(=O)(=O)Nc2ccc(Br)cc2)c1 | 7.56 |
| C[C@H](CO)N1C[C@H](C)[C@@H](CN(C)Cc2cncnc2)Oc2cc(C#CC3CCCC3)ccc2S1(=O)=O | 0.805 |
| COc1ccc(OC)c(S(=O)(=O)Nc2ccccc2C(F)(F)F)c1 | 9.97 |
| C[C@H](CO)N1C[C@H](C)[C@@H](CN(C)C(=O)Nc2ccc(C(F)(F)F)cc2)Oc2c(NC(=O)C3CCOCC3)cccc2C1=O | 29.8 |
| Cc1ccc(C)c(S(=O)(=O)NCCCc2ccccc2)c1 | 3.15 |
| CCOc1ccccc1C(=O)N1CCN(c2cccc(Cl)c2)CC1 | 11.6 |
| CC1CCCC(NS(=O)(=O)c2ccc3c(c2)OCCO3)C1C (stereo not given) | 3.1 |
| CCCNC(=O)NC[C@@H]1[C@@H](c2ccc(C3=CCCC3)cc2)[C@@H](CO)N1C(=O)CC | 16.9 |
| CC(=O)N1CCOc2ccc(S(=O)(=O)Nc3cccc(C)c3)cc21 | 1.64 |
| CN1CCN(C(=O)c2cc3nc(-c4ccccc4)cc(-c4ccccc4)n3n2)CC1 | 2.23 |
| O=S(=O)(Nc1cccc(-c2cn3ccsc3n2)c1)c1ccc(F)cc1 | 6.48 |
| CC(C)CCC(CC(C)O)C(=O)NNC(=S)Nc1ccccc1 (stereo not given) | 9.74 |
| CCCCOC(=O)NC1CCc2cc(OC)c(OC)c(OC)c2-c2ccc(SC)c(=O)cc21 (stereo not given) | 0.863 |
| COCCNC(=O)c1ccc(C)c(S(=O)(=O)Nc2ccc(C)cc2)c1 | 6.38 |
| COc1ccc(NS(=O)(=O)c2ccc(Cl)c(N)c2)cc1Br | 3.88 |
| COc1ccc(S(=O)(=O)N(C)C[C@H]2Oc3ccc(N(C)C)cc3C(=O)N([C@H](C)CO)C[C@@H]2C)cc1 | 9.52 |
| CCN1C(=O)c2cccc3c(S(=O)(=O)NCCc4c[nH]c5ccccc45)ccc1c23 | 3.09 |
| O=S(=O)(Nc1ccc(N2CCOCC2)cc1)c1cc(Cl)ccc1Cl | 26.6 |
| CCCCNS(=O)(=O)c1ccc2nc(-c3cccnc3)cc(C(=O)NCCOC)c2c1 | 1.18 |
| O=S(=O)(NC1CC2CCC1C2)c1ccc2c(c1)OCCO2 (stereo not given) | 3.87 |
| CCOc1ccc(NS(=O)(=O)c2ccc(NC(=S)NC(=O)CC(C)C)cc2)cc1 | 1.68 |

| Structure (SMILES) | AC40 [µM] |
| --- | --- |
| COc1cccc(CC(=O)Nc2ccc(N3CCOCC3)c(S(=O)(=O)Nc3ccccc3OC)c2)c1 | 1.48 |
| COc1ccc(OC)c(-c2csc(NC(=O)Cc3ccccc3F)n2)c1 | 8.49 |
| C[C@@H]1CN([C@H](C)CO)C(=O)Cc2cc(NS(=O)(=O)c3ccc(Cl)cc3)ccc2O[C@@H]1CN(C)C(=O)Nc1ccc(C(F)(F)F)cc1 | 6.38 |
| O=C(c1ccc(F)cc1)N1C[C@H]2[C@@H](c3ccccc31)[C@@H](CO)N2C(=O)c1ccccc1 | 17.6 |
| COc1ccc(NS(=O)(=O)c2cc(NC(=O)COc3ccc(OC)cc3)ccc2N2CCOCC2)cc1 | 2.62 |
| Cc1cc(C(O)c2ncc(-c3ccccc3)[nH]2)ccc1F (stereo not given) | 19.2 |
| O=C(Nc1ccc2c(c1)CCC2)c1cc(S(=O)(=O)Nc2ccc(F)cc2)c(Cl)cc1Cl | 4.1 |
| COc1ccc(C)cc1S(=O)(=O)NCCC1=CCCCC1 | 0.465 |
| Cc1cc(C)c(C)c(S(=O)(=O)Nc2ccc(C(=O)N3CCCC3)cc2)c1C | 2 |
| Cc1ccc(-c2nnc(Nc3ccc4c(c3)OCO4)c3ccccc23)cc1S(N)(=O)=O | 5.9 |
| Cc1sc(NC(=O)c2ccccc2)c(C(c2ccc(Cl)cc2)N2CCN(CCO)CC2)c1C (stereo not given) | 22.3 |
| CCc1ccc(-c2cc(C)no2)cc1S(=O)(=O)NCc1ccco1 | 1.61 |
| Cc1ccc(C2=NN3C(C(=O)c4ccccc4)Oc4ccccc4C3C2)cc1 (stereo not given) | 4.05 |
| COc1ccc(S(=O)(=O)Nc2ccc(F)cc2)c(C)c1C | 0.922 |
| CC(C)(C)NS(=O)(=O)c1ccc2[nH]c3c(c2c1)CCCCC3 | 5.04 |
| Cc1ccccc1OCC(=O)NNC(=O)Nc1ccc(Cl)cc1 | 17.4 |
| Cc1ccc(S(=O)(=O)n2nc(C)c(Br)c2C)c(C)c1C | 12 |
| COc1cccc(S(=O)(=O)Nc2ccc(C(O)(C(F)(F)F)C(F)(F)F)cc2)c1 | 4.24 |
| Cc1ccc(C2CN(C)C3(C(=O)Nc4ccccc43)C23COc2ccccc2C3=O)cc1 (stereo not given) | 1.08 |
| C[C@H]1CN([C@@H](C)CO)C(=O)c2cccc(NC(=O)c3ccncc3)c2O[C@@H]1CN(C)CC1CCCCC1 | 7.44 |
| COc1ccc(C2CCCCCN2Cc2nc3ccccc3c(=O)n2CC(N)=O)cc1 (stereo not given) | 9.73 |
| OC(c1ccc(Cl)c(F)c1)c1ncc(-c2ccccc2F)[nH]1 (stereo not given) | 2.04 |
| CCCCn1c(NC(=O)c2ccc(Br)o2)c(S(=O)(=O)c2ccccc2)c2nc3ccccc3nc21 | 25.7 |
| Cc1cccc(C)c1NC(=S)NC(C)CCc1ccccc1 (stereo not given) | 17 |
| Cc1ccc(NC(=O)CNC(=O)c2cccs2)cc1S(=O)(=O)Nc1ccc(Cl)cc1 | 3.31 |

| Structure (SMILES) | AC40 [µM] |
| --- | --- |
| CCOC(=O)c1c(NC(=O)c2ccccc2N(C)S(=O)(=O)c2ccccc2)sc2c1CCCC2 | 13.3 |
| CCN(CC)c1ccc(NC(=O)COc2ccccc2C#N)cc1S(=O)(=O)Nc1ccccc1OC | 0.325 |
| CCOc1ccc(S(=O)(=O)NCc2ccco2)c2ccccc12 | 3.06 |
| Cc1noc(C)c1S(=O)(=O)N(C)C[C@@H]1Oc2c(NC(=O)C3CCOCC3)cccc2C(=O)N([C@@H](C)CO)C[C@@H]1C | 4.51 |
| COc1ccc(S(=O)(=O)Nc2cc(Cl)ccc2OC)cc1 | 2.68 |
| Cc1cc(S(=O)(=O)N(Cc2ccccc2F)C2CC2)ccc1-n1cnnn1 | 1.94 |
| COc1ccc(F)cc1S(=O)(=O)Nc1ccc2c(c1)OCO2 | 5.47 |
| O=C(Nc1ccc(F)cc1)N1C[C@H]2[C@@H](c3ccccc31)[C@@H](CO)N2C(=O)c1ccc(F)cc1 | 10.9 |
| COc1cccc(CN(C(=O)Cc2c[nH]c3ccccc23)C(C(=O)NC2CCCCC2)c2cccs2)c1 (stereo not given) | 6.05 |
| Cc1c(C)c(C)c(S(=O)(=O)NCCc2ccccn2)c(C)c1C | 1.69 |
| CC(C)(C)C(=O)Nc1cc(S(=O)(=O)Nc2ccc(Cl)cc2)ccc1Cl | 2.74 |
| Cc1nc2ccc(NS(=O)(=O)c3c(C)c(C)cc(C)c3C)cc2s1 | 0.68 |
| C[C@@H]1CN([C@H](C)CO)C(=O)c2cccc(NS(=O)(=O)c3ccccc3)c2O[C@@H]1CN(C)Cc1ccc(C(=O)Nc2ccccc2N)cc1 | 17.2 |
| Cc1ccc(C)c(S(=O)(=O)Nc2cc3c4c(c2)CC(=O)N4CCC3)c1 | 1.88 |
| COc1ccc(Cl)cc1S(=O)(=O)NCc1cccnc1 | 14.5 |
| CC(=O)Nc1ccc2c(c1)C(=O)N(C)[C@H]1CC[C@@H](CC(=O)NCc3ccc(Cl)cc3)O[C@H]1CO2 | 11 |
| CCOc1cc(C)c(S(=O)(=O)NCCCn2ccnc2)cc1C | 5.88 |
| COc1ccc(C(C)(C)C)cc1S(=O)(=O)n1ccnc1C | 4.82 |
| COc1ccc(-c2ccc3c(c2)CN(C(=S)NCCc2ccccc2)Cc2cnnn2-3)cc1 | 2.2 |
| O=C(Nc1ccc(S(=O)(=O)NC2CCCCC2)cc1)c1ccc(Br)o1 | 1.66 |
| COc1ccc(S(=O)(=O)Nc2ccc3c(c2)CC(=O)N([C@H](C)CO)C[C@H](C)[C@H](CN(C)Cc2ccc(C(=O)Nc4ccccc4N)cc2)O3)cc1 | 10.5 |
| C[C@]12CC[C@H](O)C[C@H]1CC[C@@H]1[C@@H]2CC[C@]2(C)[C@@H](C3=CC(=O)OC3)CC[C@]12O | 5.74 |
| O=C(Cc1ccccc1)N1C[C@@H]2[C@H](c3ccccc31)[C@@H](CO)N2C(=O)Nc1ccc(F)cc1 | 2.61 |
| CCOc1ccc(Br)cc1S(=O)(=O)NC1CCCC1 | 1.29 |
| COC(=O)c1[nH]c2ccccc2c1NC(=O)CN1CCCc2ccccc21 | 21.5 |

| Structure (SMILES) | AC40 [µM] |
| --- | --- |
| O=C(Nc1ccc(S(=O)(=O)Nc2nccs2)cc1)c1cc(-c2ccccc2Cl)nc2ccccc12 | 2.48 |
| C[C@H]1CN([C@@H](C)CO)C(=O)c2cccc(NC(=O)Nc3ccccc3)c2O[C@@H]1CN(C)Cc1ccc(C(=O)Nc2ccccc2N)cc1 | 11.3 |
| CC(C)NC(=O)Nc1cccc2c1O[C@@H](CN(C)Cc1ccc(C(F)(F)F)cc1)[C@H](C)CN([C@H](C)CO)C2=O | 1.52 |
| S=C(Nc1ccccc1Cl)NC1CCCCCC1 | 17.2 |
| O=S(=O)(c1ccccc1)c1cc(O)ccc1O | 11.5 |
| COc1ccc(S(=O)(=O)NCc2ccccn2)cc1NC(=O)c1ccc(C)cc1 | 7.81 |
| C[C@H](CO)N1C[C@H](C)[C@H](CN(C)Cc2ccc(C(=O)Nc3ccccc3N)cc2)Oc2ccc(NS(=O)(=O)c3cn(C)cn3)cc2CC1=O | 27 |
| Cc1ccccc1NC(=O)Nc1ccc2c(c1)C(=O)N(C)[C@H]1CC[C@H](CC(=O)NCC3CC3)O[C@H]1CO2 | 1.87 |
| CC(=O)c1ccc(NS(=O)(=O)c2ccc3c(c2)N(C)CCO3)cc1 | 3.6 |
| Cc1ccc(-c2ccc3c(c2)O[C@H](CN(C)Cc2ccc(F)cc2)[C@@H](C)CN([C@H](C)CO)S3(=O)=O)cc1 | 5.46 |
| CC(=O)Nc1ccc(C(=O)Nc2ccc(S(=O)(=O)NCC3CCCO3)cc2)cc1 (stereo not given) | 2.69 |
| Cc1ccc(OC(C)C(=O)Nc2ccc(C)c(S(=O)(=O)Nc3ccc(C)cc3C)c2)cc1 (stereo not given) | 12.5 |
| Cc1c(C(=O)N2CCCCC2)c(S(=O)(=O)Nc2cccc(Br)c2)c(C)n1C | 1.44 |
| COc1ccccc1NS(=O)(=O)c1cc(NC(=S)NCC2CCCO2)ccc1C (stereo not given) | 3.52 |
| Cc1ccccc1OC1C(=O)N(Cc2ccc3c(c2)OCO3)C1c1sccc1C (stereo not given) | 13.7 |
| Cc1ccc(NS(=O)(=O)c2cc(Br)cnc2N)cc1C | 2.36 |
| Cc1ccccc1S(=O)(=O)N1CC[C@@H]2[C@@H](CO)N(C)c3ccc(-c4ccccc4)cc3[C@@H]21 | 4.05 |
| CCCCn1nnnc1C(c1cccc(OC)c1OC)N1CCC2(CC1)C(=O)NCN2c1ccccc1 (stereo not given) | 2.44 |
| CCN(CC)S(=O)(=O)c1ccc(NS(=O)(=O)c2ccc(C)c(C)c2)cc1 | 11.3 |
| Cc1cc(S(=O)(=O)Nc2ccc3ccccc3c2)c(C)s1 | 1.06 |
| CCOc1cc(S(=O)(=O)NCCc2ccccc2C)c(OCC)cc1-n1cnnn1 | 2.52 |
| Cc1ccc(C(=O)NCCSC2CCCCC2)cc1S(=O)(=O)Nc1ccccc1 | 6.44 |
| COc1cccc(NS(=O)(=O)c2c(C)cc(C)cc2C)c1 | 3.37 |
| COc1ccc(C)cc1S(=O)(=O)Nc1cc(Cl)ccc1Cl | 2.5 |
| Cc1ccc(C)c(NS(=O)(=O)c2cc(C(=O)NCc3ccco3)ccc2C)c1 | 7.68 |
